Reference: patent US7355069B2, “Ortho-substituted benzoic acid derivatives for the treatment of insulin resistance” (AstraZeneca AB, priority 2002, dated 2008)

Target: T1, human PPAR alpha (Homo sapiens, UniProt Q07869)
T1 construct: expressed in transfected cells; host or cells: U2-OS (human osteogenic sarcoma), transient electroporation with pSG5-based expression vector
T1 sequence (Q07869 239-466 limits assumed): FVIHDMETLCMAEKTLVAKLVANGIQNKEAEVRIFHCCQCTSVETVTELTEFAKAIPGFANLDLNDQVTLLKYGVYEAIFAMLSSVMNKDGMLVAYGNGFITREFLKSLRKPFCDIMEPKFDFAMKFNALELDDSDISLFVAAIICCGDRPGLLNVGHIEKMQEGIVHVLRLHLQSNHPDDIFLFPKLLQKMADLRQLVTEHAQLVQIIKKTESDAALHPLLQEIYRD
Assay: GAL4-PPAR ligand binding domain luciferase reporter transactivation assay in transiently transfected U2-OS cells
Format: cell-based
Details: about 24 hours exposure, concentration giving 50% of maximal activation by reference compound (ETYA)
Description: Compounds were dissolved in DMSO to obtain 16 mM stock solutions. Before assays, stock solutions were further diluted in DMSO and culture media.
U2-OS, (Osteogenic sarcoma, Human) was purchased from ATCC, USA. Cells were expanded and refrozen in batches from passage number six. Cells were cultured in Dulbecco's modified Eagle medium (DMEM) with 25 mM glucose, 2 mM glutamine or 4 mM L-alanyl-L-glutamine, 10% fetal calf serum, at 5% CO2. Phosphate buffered saline (PBS) without addition of calcium or magnesium was used. All cell culture reagents were from Gibco (USA) and 96-well cell culture plates were purchased from Wallach.
Standard recombinant DNA techniques were carried out as described by Ausubel (7). The Luciferase reporter vector, pGL5UAS (clone consists of five copies of the GAL4 DNA binding sequence, 5′-[…]-3′, cloned into the SacI/XhoI sites of pGL3-Promoter (Promega). The SacI/XhoI fragment carrying the UAS sites was constructed using annealed overlapping oligonucleotides.
Expression vectors used are based upon pSG5 (Stratagene). All vectors contain an EcoRI/NheI fragment encoding the DNA binding domain of GAL4 (encoding amino acid positions 1-145 of database accession number P04386) followed by an in-frame fusion to a fragment encoding the nuclear localisation sequence from T antigen of Polyoma Virus. The nuclear localisation sequence was constructed using annealed overlapping oligonucleotides creating NheI/KpnI sticky ends (5′-[…]-3′). The ligand binding domains from human and mouse PPARα and human and mouse PPARγ were PCR amplified as KpnI/BamHI fragments and cloned in frame to the GAL4 DNA binding domain and the nuclear localisation sequence. The sequence of all plasmid constructs used were confirmed by sequencing.
Frozen stocks of cells from passage number six were thawed and expanded to passage number eight before transfections. Confluent cells were trypsinised, washed and pelleted by centrifugation at 270×g for 2 minutes. The cell pellet was resuspended in cold PBS to a cell concentration of about 18×10^6 cells/ml. After addition of DNA, the cell suspension was incubated on ice for approximately 5 minutes before electroporation at 230 V, 960 μF in Biorad's Gene Pulser™ in 0.5 ml batches. A total of 50 μg DNA was added to each batch of 0.5 ml cells, including 2.5 μg expression vector, 25 μg reporter vector and 22.5 μg unspecific DNA (pBluescript, Stratagene).
After electroporation, cells were diluted to a concentration of 320'000 cells/ml in DMEM without phenol red, and approximately 25'000 cells/well were seeded in 96-well plates. In order to allow cells to recover, seeded plates were incubated at 37° C. for 3-4 hours before addition of test compounds. […]

| Compound | EC50 [nM] |
| --- | --- |
| CCCCCCCN(Cc1ccc(F)cc1F)C(=O)CCc1ccc(OCc2ccccc2C(=O)O)cc1 [Example 5, 2-[(4-{3-[(2,4-Difluorobenzyl)(heptyl)amino]-3-oxopropyl}phenoxy)methyl]benzoic acid] | 163 |
| CCCN(Cc1ccc(F)cc1F)C(=O)CCc1ccc(OCc2ccccc2C(=O)O)cc1 [Example 10, 2-[(4-{3-[(2,4-difluorobenzyl)(propyl)amino]-3-oxopropyl}phenoxy)methyl]benzoic acid] | 168 |
| CCN(Cc1ccc(C(F)(F)F)cc1)C(=O)Cc1ccc(SCc2ccccc2C(=O)O)cc1 [Example 11, 2-({[4-(2-{Ethyl[4-(trifluoromethyl)benzyl]amino}-2-oxoethyl)phenyl]thio}methyl)benzoic acid] | 26 |
| CCN(Cc1ccc(Cl)cc1)C(=O)Cc1ccc(SCc2ccccc2C(=O)O)cc1 [Example 15, 2-{[(4-{2-[(4-Chlorobenzyl)(ethyl)amino]-2-oxoethyl}phenyl)thio]methyl}benzoic acid] | 27 |
